Assays:
Type in all cases: in vivo
[1] = system: wheat (Triticum aestivum); assay: Test A postemergence; conditions: Triticum aestivum, post-emergence, 240 h, 0 to 100 scale, read-out: Plant response rating, Wheat
Outline: (§1)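 Injury scores run from 0, no effect, to 100, complete control, judged by eye against untreated plants roughly 10 days after treatment. Chemicals carried a surfactant in a non-phytotoxic solvent and went onto loam–sand soil preemergence or onto one- to two-leaf seedlings postemergence.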

[2] = system: blackgrass (Alopecurus myosuroides); assay: Test A postemergence; conditions: Alopecurus myosuroides, post-emergence, 240 h, 0 to 100 scale, read-out: Plant response rating, Blackgrass
Outline: as §1

[3] = system: barnyardgrass (Echinochloa crus-galli); assay: Test A postemergence; conditions: Echinochloa crus-galli, post-emergence, 240 h, 0 to 100 scale, read-out: Plant response rating, Barnyardgrass
Outline: as §1

[4] = system: galium (catchweed bedstraw, Galium aparine); assay: Test A postemergence; conditions: Galium, post-emergence, 240 h, 0 to 100 scale, read-out: Plant response rating, Galium
Outline: as §1

kochia (Kochia scoparia) [5] = assay: Test A postemergence; conditions: Bassia scoparia, post-emergence, 240 h, 0 to 100 scale, read-out: Plant response rating, Kochia
Outline: as §1

[6] = system: ragweed (common ragweed, Ambrosia elatior); assay: Test A postemergence; conditions: Ambrosia artemisiifolia, post-emergence, 240 h, 0 to 100 scale, read-out: Plant response rating, Ragweed
Outline: as §1

[7] = system: Italian ryegrass (Lolium multiflorum); assay: Test A postemergence; conditions: Lolium multiflorum, post-emergence, 240 h, 0 to 100 scale, read-out: Plant response rating, Ryegrass, Italian
Outline: as §1

corn (Zea mays) = assay: Test A postemergence; conditions: Zea mays, post-emergence, 240 h, 0 to 100 scale
Outline: as §1

[8] = system: giant foxtail (Setaria faberii); assay: Test A postemergence; conditions: Setaria faberi, post-emergence, 240 h, 0 to 100 scale, read-out: Plant response rating, Foxtail, Giant
Outline: as §1

[9] = system: pigweed (Amaranthus retroflexus); assay: Test A postemergence; conditions: Amaranthus retroflexus, post-emergence, 240 h, 0 to 100 scale, read-out: Plant response rating, Pigweed
Outline: as §1

wild oat (Avena fatua) = assay: Test C postemergence; conditions: Avena fatua, post-emergence, Postemergence, scale 0 to 100, read-out: Plant response rating, Oat, Wild
Description: (§2) Seeds of plant species selected from blackgrass (Alopecurus myosuroides), Italian ryegrass (Lolium multiflorum), winter wheat (Triticum aestivum), galium (catchweed bedstraw, Galium aparine), corn (Zea mays), large (Lg) crabgrass (Digitaria sanguinalis), giant foxtail (Setaria faberii), johnsongrass (Sorghum halepense), lambsquarters (Chenopodium album), morningglory (Ipomoea coccinea), yellow nutsedge (Cyperus esculentus), pigweed (Amaranthus retroflexus), ragweed (common ragweed, Ambrosia elatior), soybean (Glycine max), barnyardgrass (Echinochloa crus-galli), oilseed rape (Brassica napus), waterhemp (common waterhemp, Amaranthus rudis), and velvetleaf (Abutilon theophrasti) were planted into a blend of loam soil and sand and treated preemergence with test chemicals formulated in a non-phytotoxic solvent mixture which included a surfactant.
(§3) At the same time, plants selected from these crop and weed species and also chickweed (common chickweed, Stellaria media), kochia (Kochia scoparia), and wild oat (Avena fatua), were planted in pots containing Redi-Earth® planting medium (Scotts Company, 14111 Scottslawn Road, Marysville, Ohio 43041) comprising spaghnum peat moss, vermiculite, wetting agent and starter nutrients and treated with postemergence applications of test chemicals formulated in the same manner. Plants ranged in height from 2 to 18 cm (1- to 4-leaf stage) for postemergence treatments. Treated plants and controls were maintained in a greenhouse for 13 to 15 days, after which time all species were compared to controls and visually evaluated. Plant response ratings, summarized in Table C, are based on a scale of 0 to 100 where 0 is no effect and 100 is complete control. A dash (-) response means no test result.

kochia (Kochia scoparia) [10] = assay: Test C postemergence; conditions: Bassia scoparia, post-emergence, Postemergence, scale 0 to 100, read-out: Plant response rating, Kochia
Description: as §2, §3

[11] = system: waterhemp (common waterhemp, Amaranthus rudis); assay: Test C postemergence; conditions: Amaranthus tuberculatus, post-emergence, Postemergence, scale 0 to 100, read-out: Plant response rating, Waterhemp
Description: as §2, §3

[12] = system: barnyardgrass (Echinochloa crus-galli); assay: Test B flooded paddy; conditions: Echinochloa crus-galli, 336 h; 250 g ai/ha, Flood, 13 to 15 days, scale 0 (no effect) to 100 (complete control); read-out: Plant response rating, Barnyardgrass
Outline: (§4)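 Test compounds are applied straight into paddy water held 3 cm above the soil surface, with that flood maintained for the whole test. After 13 to 15 days in the greenhouse, each species is scored visually relative to controls.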

rice (Oryza sativa) = assay: Test B flooded paddy; conditions: Oryza sativa, 336 h; 250 g ai/ha, Flood, 13 to 15 days, scale 0 (no effect) to 100 (complete control); read-out: Plant response rating, Rice
Outline: as §4

[13] = system: sedge, umbrella (small-flower umbrella sedge, Cyperus difformis); assay: Test B flooded paddy; conditions: Cyperus difformis, 336 h; 250 g ai/ha, Flood, 13 to 15 days, scale 0 (no effect) to 100 (complete control); read-out: Plant response rating, Sedge, Umbrella
Outline: as §4

[14] = system: ducksalad (Heteranthera limosa); assay: Test B flooded paddy; conditions: Heteranthera limosa, 336 h; 250 g ai/ha, Flood, 13 to 15 days, scale 0 (no effect) to 100 (complete control); read-out: Plant response rating, Ducksalad
Outline: as §4

[15] = system: barnyardgrass (Echinochloa crus-galli); assay: Test A preemergence; conditions: Echinochloa crus-galli, pre-emergence, 240 h
Outline: as §1

kochia (Kochia scoparia) [16] = assay: Test A preemergence; conditions: Bassia scoparia, pre-emergence, 240 h, 0 to 100 scale (0 no effect, 100 complete control), read-out: Kochia plant response rating
Outline: as §1

[17] = system: ragweed (common ragweed, Ambrosia elatior); assay: Test A preemergence; conditions: Ambrosia artemisiifolia, pre-emergence, 240 h, 0 to 100 scale (0 no effect, 100 complete control), read-out: Ragweed plant response rating
Outline: as §1

[18] = system: Italian ryegrass (Lolium multiflorum); assay: Test A preemergence; conditions: Lolium multiflorum, pre-emergence, 240 h, 0 to 100 scale (0 no effect, 100 complete control), read-out: Ryegrass, Italian plant response rating
Outline: as §1

[19] = system: giant foxtail (Setaria faberii); assay: Test A preemergence; conditions: Setaria faberi, pre-emergence, 240 h, 0 to 100 scale (0 no effect, 100 complete control), read-out: Foxtail, Giant plant response rating
Outline: as §1

[20] = system: pigweed (Amaranthus retroflexus); assay: Test A preemergence; conditions: Amaranthus retroflexus, pre-emergence, 240 h, 0 to 100 scale (0 no effect, 100 complete control), read-out: Pigweed plant response rating
Outline: as §1

Structure (SMILES): N#Cc1cccc(Oc2ncc(Cl)cn2)c1Oc1ccc(Cl)cn1 [Compound 16, 2-[(5-chloro-2-pyridinyl)oxy]-3-[(5-chloro-2-pyrimidinyl)oxy]benzonitrile]
- plant injury at 31 g/ha ([1]; 31 g ai/ha): 0%
- plant injury at 125 g/ha ([1]; 125 g ai/ha): 20%
- pest or weed control at 31 g/ha ([2]; 31 g ai/ha): 50%
- pest or weed control at 125 g/ha ([2]; 125 g ai/ha): 70%
- pest or weed control at 31 g/ha ([3]; 31 g ai/ha): 10%
- pest or weed control at 125 g/ha ([3]; 125 g ai/ha): 70%
- pest or weed control at 31 g/ha ([4]; 31 g ai/ha): 90%
- pest or weed control at 125 g/ha ([4]; 125 g ai/ha): 90%
- pest or weed control at 31 g/ha (kochia (Kochia scoparia) [5]; 31 g ai/ha): 50%
- pest or weed control at 125 g/ha (kochia (Kochia scoparia) [5]; 125 g ai/ha): 100%
- pest or weed control at 31 g/ha ([6]; 31 g ai/ha): 10%
- pest or weed control at 125 g/ha ([6]; 125 g ai/ha): 30%
- pest or weed control at 31 g/ha ([7]; 31 g ai/ha): 40%
- pest or weed control at 125 g/ha ([7]; 125 g ai/ha): 80%
- Corn plant response rating (crop injury, 0 = no effect, 100 = complete kill) at 31 g/ha (corn (Zea mays); 31 g ai/ha): 0%
- Corn plant response rating (crop injury, 0 = no effect, 100 = complete kill) at 125 g/ha (corn (Zea mays); 125 g ai/ha): 20%
- pest or weed control at 31 g/ha ([8]; 31 g ai/ha): 70%
- pest or weed control at 125 g/ha ([8]; 125 g ai/ha): 80%
- pest or weed control at 31 g/ha ([9]; 31 g ai/ha): 100%
- pest or weed control at 125 g/ha ([9]; 125 g ai/ha): 100%
- pest or weed control at 31 g/ha (wild oat (Avena fatua); 31 g ai/ha): 10%
- pest or weed control at 62 g/ha (wild oat (Avena fatua); 62 g ai/ha): 5%
- pest or weed control at 125 g/ha (wild oat (Avena fatua); 125 g ai/ha): 5%
- pest or weed control at 16 g/ha (kochia (Kochia scoparia) [10]; 16 g ai/ha): 90%
- pest or weed control at 31 g/ha (kochia (Kochia scoparia) [10]; 31 g ai/ha): 90%
- pest or weed control at 62 g/ha (kochia (Kochia scoparia) [10]; 62 g ai/ha): 90%
- pest or weed control at 125 g/ha (kochia (Kochia scoparia) [10]; 125 g ai/ha): 95%
- pest or weed control at 31 g/ha ([11]; 31 g ai/ha): 90%
- pest or weed control at 62 g/ha ([11]; 62 g ai/ha): 95%
- pest or weed control at 125 g/ha ([11]; 125 g ai/ha): 90%
- pest or weed control at 250 g/ha [12]: 20%
- plant injury at 250 g/ha (rice (Oryza sativa)): 40%
- pest or weed control at 250 g/ha [13]: 95%
- pest or weed control at 250 g/ha [14]: 90%
- pest or weed control at 31 g/ha ([15]; 31 g ai/ha, 0 to 100 scale (0 no effect, 100 complete control), read-out: Barnyardgrass plant response rating): 30%
- pest or weed control at 125 g/ha ([15]; 125 g ai/ha, 0 to 100 scale, read-out: Plant response rating, Barnyardgrass): 70%
- pest or weed control at 31 g/ha (kochia (Kochia scoparia) [16]; 31 g ai/ha): 30%
- pest or weed control at 125 g/ha (kochia (Kochia scoparia) [16]; 125 g ai/ha): 90%
- pest or weed control at 31 g/ha ([17]; 31 g ai/ha): 0%
- pest or weed control at 125 g/ha ([17]; 125 g ai/ha): 0%
- pest or weed control at 31 g/ha ([18]; 31 g ai/ha): 0%
- pest or weed control at 125 g/ha ([18]; 125 g ai/ha): 20%
- pest or weed control at 31 g/ha ([19]; 31 g ai/ha): 90%
- pest or weed control at 125 g/ha ([19]; 125 g ai/ha): 100%
- pest or weed control at 31 g/ha ([20]; 31 g ai/ha): 100%
- pest or weed control at 125 g/ha ([20]; 125 g ai/ha): 100%

Reference: patent US20170190671A1, “BIS(ARYL)CATECHOL DERIVATIVES AS HERBICIDES” (E I DU PONT DE NEMOURS AND COMPANY, priority 2014, published 2017)
